# Data reported in BindingDB's records for patent US20240158369 (Wigen Biomedicine Technology (Shanghai), 2024).
# Molecular target: Wee1-like protein kinase (Homo sapiens, UniProt P30291)
# Test: In-Vitro Assay
# Procedure: The inhibitory effect of the compounds on the enzyme activity of recombinant protein Wee-1 was determined by HTRF. The procedures are as follows: After DMSO or serially diluted compounds (up to 200 nM, 1:5 diluted) and recombinant proteins were co-incubated in a kinase buffer at 37° C. for 30 min before Fluorescein-PolyGAT and ATP were added, and the reaction was initiated by addition of a substrate. After incubation at room temperature for 90 min, an antibody and a detection solution were added, and after further incubation at room temperature for 60 min, fluorescence values were detected (excitation wavelength: 340 nm, emission wavelengths: 495 and 520 nm). The 520 nm/495 nm fluorescence intensity ratio value was calculated, and compared with that of the DMSO group, and then the inhibition percentages and IC50 values of the compounds were calculated.
# Wee1-like protein kinase, sequence (P30291 whole entry): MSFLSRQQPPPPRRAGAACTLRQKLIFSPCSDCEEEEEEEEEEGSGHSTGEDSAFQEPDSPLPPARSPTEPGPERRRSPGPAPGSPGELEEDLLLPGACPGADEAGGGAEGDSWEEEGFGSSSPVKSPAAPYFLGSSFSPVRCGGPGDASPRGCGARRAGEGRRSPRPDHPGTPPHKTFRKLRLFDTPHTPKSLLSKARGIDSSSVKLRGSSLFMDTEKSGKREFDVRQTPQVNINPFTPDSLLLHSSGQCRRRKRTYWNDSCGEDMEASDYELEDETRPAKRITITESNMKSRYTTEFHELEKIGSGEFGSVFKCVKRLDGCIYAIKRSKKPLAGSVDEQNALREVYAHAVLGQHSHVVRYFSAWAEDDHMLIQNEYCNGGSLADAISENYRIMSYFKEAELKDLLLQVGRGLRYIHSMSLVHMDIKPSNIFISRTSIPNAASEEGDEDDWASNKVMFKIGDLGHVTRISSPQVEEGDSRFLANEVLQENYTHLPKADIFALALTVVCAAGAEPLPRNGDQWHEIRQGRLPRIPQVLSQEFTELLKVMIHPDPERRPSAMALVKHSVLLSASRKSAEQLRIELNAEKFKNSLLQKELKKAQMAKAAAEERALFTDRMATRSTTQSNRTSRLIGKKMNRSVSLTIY
smiles,measurement,value
"CC(C)Cc1cc(Nc2ncc(C#N)c(Nc3cccc(N=S(C)(C)=O)n3)n2)cc2c1CCN(C)C2 [US20240158369, Compound 87]",IC50,< 10 nM
